Test results as given in the Kinase Knowledgebase extract (Sharma et al. 2016).

Target: EGFR (human) (UniProt P00533)
Sequence (P00533 whole entry, looked up): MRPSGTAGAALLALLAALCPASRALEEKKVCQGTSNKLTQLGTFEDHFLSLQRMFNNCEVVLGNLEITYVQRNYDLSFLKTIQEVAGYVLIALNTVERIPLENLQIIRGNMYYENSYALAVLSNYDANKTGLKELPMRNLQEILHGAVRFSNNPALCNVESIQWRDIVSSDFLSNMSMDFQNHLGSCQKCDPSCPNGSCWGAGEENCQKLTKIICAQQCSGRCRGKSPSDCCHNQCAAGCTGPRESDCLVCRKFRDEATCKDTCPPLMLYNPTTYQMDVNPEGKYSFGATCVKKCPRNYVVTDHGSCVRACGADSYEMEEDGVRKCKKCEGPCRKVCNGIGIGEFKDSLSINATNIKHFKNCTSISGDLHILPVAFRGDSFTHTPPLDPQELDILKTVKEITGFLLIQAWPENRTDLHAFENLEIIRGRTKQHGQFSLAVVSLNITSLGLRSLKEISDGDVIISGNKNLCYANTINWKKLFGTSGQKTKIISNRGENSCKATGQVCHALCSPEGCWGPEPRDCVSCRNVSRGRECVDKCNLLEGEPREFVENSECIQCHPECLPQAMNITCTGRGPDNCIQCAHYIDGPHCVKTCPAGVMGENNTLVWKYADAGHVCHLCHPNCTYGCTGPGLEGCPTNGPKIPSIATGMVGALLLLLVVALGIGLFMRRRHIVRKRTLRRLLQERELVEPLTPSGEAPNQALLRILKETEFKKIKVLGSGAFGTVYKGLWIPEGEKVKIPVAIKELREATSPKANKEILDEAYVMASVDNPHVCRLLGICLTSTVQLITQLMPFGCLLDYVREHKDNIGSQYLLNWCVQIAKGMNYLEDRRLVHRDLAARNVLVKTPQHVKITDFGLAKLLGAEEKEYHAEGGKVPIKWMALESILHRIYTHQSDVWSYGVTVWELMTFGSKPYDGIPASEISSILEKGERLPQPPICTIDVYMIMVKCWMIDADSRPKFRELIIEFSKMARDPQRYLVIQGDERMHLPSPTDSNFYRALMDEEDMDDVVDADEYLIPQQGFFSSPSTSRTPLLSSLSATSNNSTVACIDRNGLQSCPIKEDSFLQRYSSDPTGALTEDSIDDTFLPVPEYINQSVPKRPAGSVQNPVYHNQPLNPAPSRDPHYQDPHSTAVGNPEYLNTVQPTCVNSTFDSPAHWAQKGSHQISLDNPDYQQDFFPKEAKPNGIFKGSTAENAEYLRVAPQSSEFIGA

IC50 | Structure (SMILES)
39.8 nM | COc1cc2ncnc(Nc3cccc(Br)c3)c2cn1
851 nM | Nc1cc2ncnc(Nc3cccc(F)c3)c2cn1
245 nM | Nc1cc2ncnc(Nc3ccccc3Br)c2cn1
13.2 nM | Fc1cc2ncnc(Nc3cccc(Br)c3)c2cn1
0.977 nM | COc1cc2ncnc(Nc3ccc(Br)cc3)c2cc1OC
132 nM | COc1cccc(Nc2ncnc3cc(N)ncc23)c1
100 nM | Nc1ccc2c(Nc3ccccc3)ncnc2c1
1820 nM | CN(C)c1cccc(Nc2ncnc3cc(N)ncc23)c1
40.7 nM | Nc1cc2ncnc(Nc3cccc([N+](=O)[O-])c3)c2cn1
29.5 nM | CC(=O)Nc1cc2ncnc(Nc3cccc(Br)c3)c2cn1
